In data set [1] the target is T1, Xanthine oxidase (from bovine milk) (Bos taurus, UniProt P80457).
T1 construct: Xanthine oxidase (from bovine milk, manufactured by Sigma); purchased Sigma; host or cells: bovine milk
Nature of the data set: Xanthine oxidase inhibitory activity. The data set is classed as biochemical. To be noted: xanthine 200 μM added at 100 μL/well, 10 minutes at room temperature, absorbance at 290 nm. The procedure:
Xanthine Oxidase Inhibitory Activity
(1) Preparation of Test Compounds
Test compounds were dissolved in dimethyl sulfoxide (DMSO) (manufactured by Wako pure chemical) at 40 mM concentration and then diluted to intended concentrations with phosphate-buffered saline (PBS).
(2) Method of Measurement
Xanthine oxidase (from bovine milk, manufactured by Sigma) was prepared with phosphate-buffered saline (PBS) at 0.02 units/mL, and then the solution was added to 96-well plates at 50 μL/well. In addition, test compounds diluted with PBS were added at 50 μL/well. Xanthine (manufactured by Wako pure chemical) at 200 μM prepared with PBS was added at 100 μL/well, and the reaction was conducted for 10 minutes at room temperature. Absorbance at 290 nm was measured by using a microplate reader SpectraMax Plus 384 (manufactured by Molecular device). The absorbance under a condition without xanthine is 0%, and control without test compounds is 100%. Fifty % inhibitory concentration of a test compound (IC50) was calculated (Table 4). “Ex. No” in the table indicates Example number.

In data set [2] the target is T2, human URAT1 (Homo sapiens, UniProt Q96S37).
T2 construct: expressed in transfected cells; host or cells: HEK293 cells
T2 sequence (Q96S37 1-553): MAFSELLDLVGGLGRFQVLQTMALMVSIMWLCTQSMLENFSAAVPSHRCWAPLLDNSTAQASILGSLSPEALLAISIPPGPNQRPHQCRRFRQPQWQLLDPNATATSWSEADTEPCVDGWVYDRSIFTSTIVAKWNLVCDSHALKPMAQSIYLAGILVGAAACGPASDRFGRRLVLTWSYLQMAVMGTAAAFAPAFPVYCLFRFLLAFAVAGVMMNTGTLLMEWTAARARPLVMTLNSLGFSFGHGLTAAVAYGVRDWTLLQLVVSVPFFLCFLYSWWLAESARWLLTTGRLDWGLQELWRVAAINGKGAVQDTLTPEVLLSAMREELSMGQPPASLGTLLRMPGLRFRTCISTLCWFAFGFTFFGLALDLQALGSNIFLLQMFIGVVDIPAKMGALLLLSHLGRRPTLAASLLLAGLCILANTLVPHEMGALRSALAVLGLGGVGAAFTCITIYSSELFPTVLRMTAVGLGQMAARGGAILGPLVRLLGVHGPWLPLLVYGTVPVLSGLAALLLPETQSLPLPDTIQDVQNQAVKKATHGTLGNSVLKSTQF
Nature of the data set: Inhibitory activity of uric acid transport with human URAT1-expressing cells. Type of data set: cell-based. The note with it: 10 μM test compound; URAT1-expressing HEK293 cells; 14C uric acid 50 μM, 2 minutes at 37° C.; read-out: percent inhibition of uric acid uptake. The method, then:
Inhibitory Activity of Uric Acid Transport with Human URAT1-Expressing Cells
(1) Cells Used in the Test
URAT1-expressing HEK293 cells (HEK293 cells transfected with vector containing human URAT1 cDNA) and control cells (HEK293 cells transfected with vector alone) were used.
URAT1-expressing cells and control cells were seeded in collagen I-coated 24-well plates (manufactured by BD FALCON) at 1 to 4×10^5 cells/well, and cultured in CO2 incubator (37° C., CO2: 5%) for 1 to 3 days, and then the following measurement of uric acid transport was conducted. In addition, Dulbecco's Modified Eagle Medium (manufactured by Invitrogen) containing 9% fetal bovine serum (manufactured by Invitrogen), antibiotic-antimycotic (manufactured by Invitrogen) and 2 mmol/L L-glutamine were used for the culture.
(2) Preparation of Test Compounds
^14C-labeled uric acid (^14C uric acid) (manufactured by American Radiolabeled Chemicals, Inc.) was dissolved in Hanks' balanced salt solution (HBSS) (manufactured by Invitrogen) to prepare HBSS containing ^14C uric acid at 50 μM. Test compounds were dissolved in DMSO and then diluted to 1000-fold with the prepared HBSS containing ^14C uric acid above to prepare ^14C uric acid solution containing the indicated concentration of test compounds (final concentration of DMSO: 0.1%). ^14C uric acid solution containing 0.1% DMSO was prepared as a control.
(3) Measurement of Uric Acid Transport
After the medium was removed from the plates in which cells were seeded, and 1 mL of HBSS was added to the cells. After the HBSS was removed, 0.3 mL of HBSS was newly added to the cells, which were incubated at 37° C. for 15 minutes. After the HBSS was removed, 0.3 mL of ^14C uric acid solution containing 0.1% DMSO or test compounds was added to the cells, which were then incubated at 37° C. for 2 minutes. After the incubation, the solution was removed, and the cells were washed once with 1 mL of ice-cold phosphate-buffered saline containing 0.2% BSA, and washed twice with 1 mL of ice-cold PBS. After the PBS was removed, the cells were lysed by addition of 0.5 mL of 0.1 mol/L NaOH aqueous solution for each well. The cell lysates (0.3 mL/well) were transferred into glass vials, and mixed with 10 mL of a scintillator (Hionic-Fluor, manufactured by Perkin Elmer). The radioactivity was measured by means of a liquid scintillation counter.
(4) Protein Determination
Protein concentration in the cell lysates was determined by BCA Protein Assay Kit (manufactured by Pierce) and then amount of protein (mg/well) was calculated.
(5) Calculation of the Percent Inhibition of Uric Acid Uptake for Each Compound
Uric acid uptake activity in each well was calculated by the following formula. Uric acid uptake activity (p mol/mg protein)=radioactivity (dpm/well)/[amount of protein (mg/well)×concentration of radioactivity in HBSS containing ^14C uric acid (dpm/p mol)]
Percent inhibition was calculated according to the following formula. Percent inhibition (%)=[1−(B−C)/(A−C)]×100 • A: Uric acid uptake activity in URAT1-expressing HEK293 cells in the presence of 0.1% DMSO • B: Uric acid uptake activity in URAT1-expressing HEK293 cells in the presence of test compounds • C: Uric acid uptake activity in control cells in the presence of 0.1% DMSO (6) Results

Data set [3] in a line: Hypouricemic effect (serum uric acid levels in rats). The data set is classed as in vivo. To be noted: oral administration at 1 mg/kg; male CD (SD) IGS rats; serum at 2 hours after administration. The method, then:
(1) Method of Measurement
Test compounds (1 mg/kg) suspended in 0.5% methylcellulose solution were orally administered to overnight fasted male CD (SD) IGS rats (5-week-old, Charles River Japan). At 2 hours after administration, blood was collected under ether anesthesia from abdominal aorta, and serum was separated according to a general method. Serum uric acid levels were determined by use of uric acid measurement kit (Uric acid C-Test Wako: manufactured by Wako pure chemical), and percent decrease in uric acid was calculated according to the formula described below. Percent decrease in uric acid (%)=(Serum uric acid levels in control animals−Serum uric acid levels in animals administered test compounds)×100/Serum uric acid levels in control animals (2) Results

Data set [4] can be described thus: Acute toxicity test. Type of data set: in vivo. To be noted: 300 mg/kg orally, male ICR mice, 24 hours after administration. The procedure:
Test compounds of Examples 2 and 12 (300 mg/kg) suspended in 0.5% methylcellulose solution were orally administered to male ICR mice (7-week-old, 5 mice per group), and the general condition during 24 hours after administration was observed.

T1 sequence (P80457 whole entry): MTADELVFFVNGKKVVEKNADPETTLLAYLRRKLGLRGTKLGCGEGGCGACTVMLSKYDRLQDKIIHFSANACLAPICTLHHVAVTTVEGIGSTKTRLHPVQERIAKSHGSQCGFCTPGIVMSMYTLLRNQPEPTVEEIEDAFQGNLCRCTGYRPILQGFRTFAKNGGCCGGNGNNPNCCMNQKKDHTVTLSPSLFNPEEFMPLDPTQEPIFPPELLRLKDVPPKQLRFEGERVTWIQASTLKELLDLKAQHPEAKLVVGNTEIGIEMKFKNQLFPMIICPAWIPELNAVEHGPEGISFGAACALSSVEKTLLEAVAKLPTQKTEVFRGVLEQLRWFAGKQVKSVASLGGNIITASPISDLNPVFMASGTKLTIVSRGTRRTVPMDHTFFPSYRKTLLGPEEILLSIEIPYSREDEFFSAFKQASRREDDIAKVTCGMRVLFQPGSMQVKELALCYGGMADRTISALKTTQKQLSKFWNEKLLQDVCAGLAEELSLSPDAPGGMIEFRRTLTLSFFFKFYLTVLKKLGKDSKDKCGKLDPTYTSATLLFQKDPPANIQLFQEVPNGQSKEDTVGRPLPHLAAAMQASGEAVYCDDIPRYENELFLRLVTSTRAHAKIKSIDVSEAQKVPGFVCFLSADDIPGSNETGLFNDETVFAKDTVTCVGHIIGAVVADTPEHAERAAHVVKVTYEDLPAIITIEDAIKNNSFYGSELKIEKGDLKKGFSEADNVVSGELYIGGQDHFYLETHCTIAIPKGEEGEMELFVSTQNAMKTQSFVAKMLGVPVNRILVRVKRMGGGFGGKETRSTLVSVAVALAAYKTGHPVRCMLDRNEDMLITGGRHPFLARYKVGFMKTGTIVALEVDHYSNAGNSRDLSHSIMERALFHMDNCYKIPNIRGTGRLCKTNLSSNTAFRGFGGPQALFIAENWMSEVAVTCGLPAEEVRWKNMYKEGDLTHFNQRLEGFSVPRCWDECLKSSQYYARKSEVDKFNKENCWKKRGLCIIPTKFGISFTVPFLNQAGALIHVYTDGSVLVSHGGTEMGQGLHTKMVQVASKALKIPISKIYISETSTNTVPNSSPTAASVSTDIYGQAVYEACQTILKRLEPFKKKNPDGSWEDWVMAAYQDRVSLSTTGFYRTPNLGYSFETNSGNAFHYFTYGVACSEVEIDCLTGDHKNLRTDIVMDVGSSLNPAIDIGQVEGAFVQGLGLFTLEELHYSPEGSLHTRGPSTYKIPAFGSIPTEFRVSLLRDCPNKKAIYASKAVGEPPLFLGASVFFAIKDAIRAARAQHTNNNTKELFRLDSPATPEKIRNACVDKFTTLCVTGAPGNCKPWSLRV

As a reminder, the IC50 is the point on the concentration scale where inhibition reaches its midpoint. For orientation: inhibition means the percentage by which the read-out fell short of the control. `Cc1ccc2c(-c3ccc(C(=O)O)c(O)c3)cc(C#N)n2n1` [Example 3] registered an IC50 in data set [1] of 5 nM. Also, in data set [2], the inhibition at 10 µM was no less than 50%. In addition, in data set [3], the “percent decrease in uric acid” value is on record as “not less than 60%”.

Consider `N#Cc1cc(-c2ccc(C(=O)O)c(O)c2)c2ccc(F)cn12` [Example 9], for which, in data set [1], the half-inhibitory concentration (IC50) worked out at 4 nM. Moreover, in data set [2], the inhibition at 10 µM was no less than 50%.

Consider `N#Cc1cc(-c2ccc(C(=O)O)c(O)c2)c2cccnn12` [Example 2, 4-(7-Cyanopyrrolo[1,2-b]pyridazine-5-yl)-2-hydroxy benzoic acid], for which, in data set [1], the 50% inhibitory concentration (IC50) worked out at 5 nM. Besides, in data set [4], the general condition result is “no abnormalities in general conditions were observed”.

The compound `N#Cc1cn(-c2ccc(C(=O)O)c(O)c2)c2cccnc12` [Example 15, 4-(3-Cyanopyrrolo[3,2-b]pyridine-1-yl)-2-hydroxy benzoic acid] came in with an IC50 in data set [1] of 10 nM. In other words, the double-digit nanomolar range.

In data set [1], `N#Cc1cc(-c2ccc(C(=O)O)c(O)c2)n2ncccc12` [Example 12] registered a half-maximal inhibitory concentration (IC50) of 4 nM. In data set [2], the inhibition at 10 µM was no less than 50%. Further, the general condition result in data set [4] is reported as “no abnormalities in general conditions were observed”.

For `N#Cc1cc(-c2ccc(C(=O)O)c(O)c2)c2ccccn12` [Example 8], the IC50 in data set [1] was determined as 12 nM. Further, the inhibition at 10 µM in data set [2] was no less than 50%.

Turning to `N#Cc1cc(-c2ccc(C(=O)O)cc2)n2ncccc12` [Example 10], in data set [1], half-maximal inhibition (IC50) required 12 nM.

As for `COc1ccc2c(-c3ccc(C(=O)O)c(O)c3)cc(C#N)n2n1` [Example 6], the IC50 in data set [1] came to 3 nM. The inhibition at 10 µM in data set [2] was no less than 50%.

Regarding `Cc1ccnn2c(-c3ccc(C(=O)O)cc3)cc(C#N)c12` [Example 11, 4-(5-Cyano-4-methylpyrrolo[1,2-b]pyridazine-7-yl)benzoic acid], inhibition in data set [1] was half-maximal at 10 nM (IC50).

With `N#Cc1cc(-c2ccc(C(=O)O)cc2)c2ccccn12` [Example 7], inhibition in data set [1] was half-maximal at 8 nM (IC50).

As for `N#Cc1cc(-c2ccc(C(=O)O)cc2)c2cccnn12` [Example 1, 4-(7-Cyanopyrrolo[1,2-b]pyridazine-5-yl)benzoic acid], the half-maximal inhibitory concentration (IC50) in data set [1] came out at 7 nM.

On to `Cc1ccc2c(-c3ccc(C(=O)O)c(O)c3)cc(C#N)n2c1C` [Example 16], for which the IC50 in data set [1] was 13 nM. The inhibition at 10 µM in data set [2] is no less than 50%.

Values taken from patent US9643969B2, “(aza)indolizine derivative and pharmaceutical use thereof” (KISSEI PHARMACEUTICAL CO., LTD., priority 2010, dated 2017).
